Key:
[1] = system: RAW 264.7 macrophages; test: LPS effects on macrophages in vitro, NO production (Griess reaction); type: cell-based, mouse; conditions: for effect on NO production of LPS-stimulated macrophages: RAW 264.7, LPS
Procedure: 3.5×10^5 cells were seeded in 96-well tissue culture plates (Nunc, 167008) in phenol red-free DMEM (Gibco) supplemented with 10% FBS and antibiotics. Following 6 hours of incubation to permit adherence, cells were stimulated with 100 or 10 ng/mL E. coli (0111:B4) or P. aeruginosa LPS (Sigma), with and without peptide of various doses. The levels of NO in culture supernatants were determined after 24 hours from stimulation using the Griess reaction [38]. Briefly, nitrite, a stable product of NO degradation, was measured by mixing 50 μl of culture supernatants with the same volume of Griess reagent (Sigma, G4410) and reading absorbance at 550 nm after 15 min. Phenol-red free DMEM with FBS and antibiotics were used as a blank. A standard curve was prepared using 0-80 μM sodium nitrite solutions in ddH2O.
3.5×10^5 RAW 264.7 cells were seeded in 96-well tissue culture plates (Nunc no. 167008) in phenol red-free DMEM (Gibco) supplemented with 10% FBS containing 1% Anti-Anti (Invitrogen). […] The level of NO in culture supernatants was determined after a period of 20 hours using the Griess reaction (27)ref. Briefly, Nitrite, a stable product of NO degradation, was measured by mixing 50 μl of culture supernatants with the same volume of Griess reagent (Sigma, G4410), and reading absorbance at 550 nm after 15 min. Phenol-red free DMEM with FBS and antibiotics were used as a blank. A standard curve was prepared using sodium nitrite at 0-80 μM in ddH2O.
3.5×10^5 cells were seeded in 96-well tissue culture plates (Nunc, 167008) in phenol red-free DMEM (Gibco) supplemented with 10% FBS and antibiotics. […] The levels of NO in culture supernatants were determined after 24 hours from stimulation using the Griess reaction [25]. Briefly, nitrite, a stable product of NO degradation, was measured by mixing 50 μl of culture supernatants with the same volume of Griess reagent (Sigma, G4410) and reading absorbance at 550 nm after 15 min. […]

[2] = system: RAW 264.7 cells; test: Cytokine release from LPS-stimulated RAW 264.7 cells; type: cell-based, mouse; conditions: 10 ng/ml E. coli LPS
Procedure: RAW 264.7 cells were stimulated with 10 ng/ml E. coli LPS and cytokines were analysed in the cell supernatants.
(§1) The cytokines IL-6, IL-10, MCP-1, INF-γ, and TNF-α were measured in cell culture supernatants from RAW264.7 cells and plasma from mice injected with LPS or P. aeruginosa (with or without peptide treatment) using the Cytometric bead array; Mouse Inflammation Kit (Becton Dickinson AB) according to the manufacturer's instructions. All plasma samples were stored at −20° C. before the analysis.

[3] = system: human peripheral blood monocytes; test: TNF-α assay in human peripheral blood monocytes; type: cell-based; conditions: 10 ng/ml E. coli LPS
Procedure: Cell supernatants were collected and stored at −20° C. […] Plasma was obtained by centrifuging at 400 g, 10 min and stored at −20° C. The TNF-α level was measured using a human TNF-Elisa Kit (Invitrogen).

[4] = system: human citrate plasma; test: Clotting assays in plasma (aPTT, PT, TCT); type: biochemical; conditions: 20 μM peptide
Procedure: (§2) All clotting times were analyzed using a coagulometer (Amelung, Lemgo, Germany). […] (PT-thromboplastin reagent (Trinity Biotech), TCT: Thrombin reagent (Technoclone)). To record the activated partial thromboplastin time (aPTT), 100 μl of a kaolin-containing solution (Technoclone) was add to the plasma-peptide mix and incubated for 200 sec before clot formation was initiated by adding 100 μl of 30 mM fresh CaCl2 solution. […] Cells were washed and resuspended in 100 μl PBS. Hundred microliter of fresh human citrate plasma were reconstituted with 100 μl of fresh 30 mM CaCl2 solution and pre-warmed for 60 sec. The clot formation was started by adding the hPBMNC. The same procedure was used to determine clotting times for whole blood.

[5] = system: human monocytes; test: Clotting time, LPS-stimulated human monocytes added to citrate plasma; type: cell-based; conditions: concentrations similar to physiological thrombin (1.5 μM)
Procedure: Whole blood was incubated with 10 ng/ml E. coli LPS+/−the indicated concentrations of peptide. The clotting reaction in human citrated plasma was initiated by adding the blood cells. […] Human monocytes were stimulated with LPS and/or peptides, and the clotting times were determined by adding the treated cells to human citrate plasma supplemented with CaCl2
as §2

[6] = system: LPS-induced shock; test: LPS model in vivo, E. coli LPS (Example B); parameters: species or system C57BL/6 mice
Procedure: Male C57BL/6 mice (8 weeks, 21+/−5 g), were injected intraperitoneally with 18 mg E. coli 0111:B4 LPS or 36 mg P. aeruginosa LPS (Sigma) per kg of body weight. […] Survival and status was followed during seven days. For SEM and histochemistry, mice were sacrificed 20 h after LPS challenge, and lungs, liver, kidney, and spleen were removed and fixed. For determination of cytokine levels in mouse plasma, animals were sacrificed 8 h and 20 h after LPS injection. The blood was collected immediately by cardiac puncture. These experiments were approved by the Laboratory Animal Ethics Committee of Malmö/Lund.
Mouse blood (anti-coagulated with EDTA) was taken by cardiac puncture and analysed with the VetScan HM5 System (TRIOLAB). The number of white blood cells, percentages of lymphocytes, neutrophils, monocytes and platelets were determined.
as §1
For scanning electron microscopy lungs were taken 20 h after LPS injection. […] Specimens were washed with cacodylate buffer, and dehydrated with an ascending ethanol series from 50% (vv) to absolute ethanol. The specimens were then subjected to critical-point drying in carbon dioxide, with absolute ethanol as intermediate solvent, mounted, on aluminium holders, sputtered with 30 nm palladium/gold and examined in a JEOL JSM-350 scanning electron microscope

[7] = system: E. coli; test: Radial diffusion assay (RDA); type: cell-based
Procedure: Essentially as described earlier, bacteria were grown to mid-logarithmic phase in […] of full-strength (3% w/v) trypticase soy broth (TSB) (Becton-Dickinson). The microorganisms were then washed once with 10 mM Tris, pH 7.4. Subsequently, 4×10^8 cfu were added to 15 ml of the underlay agarose gel, consisting of 0.03% (w/v) TSB, 1% (w/v) low electroendosmosis type (EEO) agarose (Sigma-Aldrich) and 0.02% (v/v) Tween 20 (Sigma-Aldrich). The underlay was poured into a Ø 144 mm petri dish. After agarose solidification, 4 mm-diameter wells were punched and 6 μl peptide solution of required concentration added to each well. Plates were incubated at 37° C. for 3 h to allow peptide diffusion. The underlay gel was then covered with 15 ml of molten overlay (6% TSB and 1% Low-EEO agarose in distilled H2O). Antimicrobial activity of a peptide was visualized as a zone of clearing around each well after 18-24 h of incubation at 37° C.
Essentially as described earlier bacteria were grown to mid-logarithmic phase in 10 ml of full-strength (3% w/v) trypticase soy broth (TSB) (Becton-Dickinson, Cockeysville, Md.). The microorganisms were then washed once with 10 mM Tris, pH 7.4. […]

[8] = system: E. coli ATCC 25922; test: Viable count assay; type: cell-based; conditions: E. coli ATCC 25922, proteins and peptides at 3 and 6 μM
Procedure: E. coli bacteria were grown to mid-logarithmic phase in Todd-Hewitt (TH) medium. They were then washed and diluted in 10 mM Tris, pH 7.4 containing 5 mM glucose. […] To quantify the bactericidal activity, serial dilutions of the incubation mixtures were plated on TH agar, followed by incubation at 37° C. overnight and the number of colony-forming units was determined. 100% survival was defined as total survival of bacteria in the same buffer and under the same condition in the absence of peptide.
E. coli ATCC 25922 bacteria were grown to mid-logarithmic phase in Todd-Hewitt (TH) medium. Bacteria were washed and re-suspended in 10 mM Tris, pH 7.4 containing 5 mM glucose. […] Serial dilutions of the incubation mixtures were plated on TH agar, followed by incubation at 37° C. overnight and cfu determination.
E. coli ATCC 25922 bacteria were grown to mid-logarithmic phase in Todd-Hewitt (TH) medium (Becton and Dickinson, Maryland, USA). The microorganisms were then washed and diluted in 10 mM Tris, pH 7.4 containing 5 mM glucose. […] To quantify the bactericidal activity, serial dilutions of the incubation mixtures were plated on TH agar, followed by incubation at 37° C. overnight and the number of colony-forming units was determined. […] Significance was determined using the statistical software SigmaStat (SPSS Inc., Chicago, Ill., USA).

HVFRLKKWIQKVIDQFGE (HVF18) [endogenously produced C-terminal thrombin peptide]
concentration completely eliminating LPS-induced NO-responses ([1]; RAW 264.7, 10 ng/ml LPS): much higher doses
effect on IL-10 [2]: significant up-regulation of IL-10
effect on cytokines at 10 μM ([2]; peptide 10 μM): not
TNF-α production [3]: damped TNF-α production
activated partial thromboplastin time (aPTT) [4]: significantly prolong
prothrombin time (PT) [4]: not significantly affected
thrombin clotting time (TCT) [4]: not significantly affected
clotting time with LPS-stimulated monocytes (TF-mediated coagulation) [5]: less potent
weight ([6]; 0.5 mg peptide, followed 7 days): full recovery of weight
survival in LPS-induced shock ([6]; 18 mg/kg E. coli LPS i.p., 0.5 mg peptide 30 minutes later): 100%
proinflammatory IL-6, IFN-γ, TNF-α, MCP-1 in blood ([6]; 8 and 20 h after LPS injection, 0.5 mg peptide): significant reductions
platelet counts ([6]; 8 and 20 h after LPS, 0.5 mg peptide): significantly increased platelets
IL-10 in blood ([6]; 8 h after LPS injection): increase in IL-10

WFFFYYLIIGGGVVTHQQRKKKKDE (WFF25 peptide) [control peptide, same composition as GKY25, amino acids sorted after hydrophobicity, reference compound]
effect on NO production of LPS-stimulated macrophages [1]: did not show anti-inflammatory effects
survival in LPS-induced shock ([6]; 500 μg i.p., followed 7 days): does not increase survival

VFRLKKWIQKVI (12-mer thrombin-derived peptide) [VFR12]
bactericidal potency in RDA at high salt ([7]; E. coli ATCC 25922, 0.15M NaCl, peptide at 100 μM): retained good bactericidal potency
effect on NO production of LPS-stimulated macrophages [1]: not able to block LPS effects

VFRLKKWIQKVIDQFGE (VFR17)
antibacterial activity in viable count assay [8]: significant antibacterial activities

thrombin
antimicrobial activity of intact protein in RDA ([7]; E. coli, low-salt conditions, not digested with neutrophil elastase): inactive
